Reference: US11912686B2 (Gilead Sciences, Inc., priority 2020, dated 2024)

target: human LPAR1 (Homo sapiens (Human), UniProt Q92633); assay: LPAR1 intracellular calcium mobilization assay (antagonist mode, FLIPR); assay type: cell-based; details: CHO-K1 EDG2 cells expressing human LPAR1, LPA 18:2 at EC80 (100 nM), test compound 0.5 nM to 10 μM
Sequence (Q92633 whole entry): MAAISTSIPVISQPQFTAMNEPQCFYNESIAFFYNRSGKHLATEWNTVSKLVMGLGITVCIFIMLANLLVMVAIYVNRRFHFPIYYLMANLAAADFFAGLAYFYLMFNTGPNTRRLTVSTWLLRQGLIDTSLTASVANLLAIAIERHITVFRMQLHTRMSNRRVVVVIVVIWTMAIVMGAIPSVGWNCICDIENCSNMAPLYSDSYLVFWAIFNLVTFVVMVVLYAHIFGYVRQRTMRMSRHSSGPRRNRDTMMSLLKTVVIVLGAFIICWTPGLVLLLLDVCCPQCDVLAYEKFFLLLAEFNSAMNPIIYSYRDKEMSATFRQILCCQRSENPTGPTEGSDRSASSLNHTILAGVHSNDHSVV

SMILES	EC50
C[C@@H](OC(=O)Nc1c(-c2ccc(NC(=O)c3ccc(C(F)(F)F)nc3F)cn2)nnn1C)c1cc(F)cnc1F [Compound 254, (R)-1-(2,5-difluoropyridin-3-yl)ethyl (4-(5-(2-fluoro-6-(trifluoromethyl)nicotinamido)pyridin-2-yl)-1-methyl-1H-1,2,3-triazol-5-yl)carbamate]	18.1 nM
C[C@@H](OC(=O)Nc1c(-c2ccc(NC(=O)c3cnc(F)cc3F)cn2)nnn1C)c1cc(F)cnc1F [Compound 255, (R)-1-(2,5-difluoropyridin-3-yl)ethyl (4-(5-(4,6-difluoronicotinamido)pyridin-2-yl)-1-methyl-1H-1,2,3-triazol-5-yl)carbamate]	346 nM
Cc1ncc(C(=O)Nc2ccc(-c3nnn(C)c3NC(=O)O[C@H](C)c3cc(F)cnc3F)nc2)o1 [Compound 256, (R)-1-(2,5-difluoropyridin-3-yl)ethyl (1-methyl-4-(5-(2-methyloxazole-5-carboxamido)pyridin-2-yl)-1H-1,2,3-triazol-5-yl)carbamate]	209 nM
Cc1nnc(C(=O)Nc2ccc(-c3nnn(C)c3NC(=O)O[C@H](C)c3cc(F)cnc3F)nc2)o1 [Compound 257, (R)-1-(2,5-difluoropyridin-3-yl)ethyl (1-methyl-4-(5-(5-methyl-1,3,4-oxadiazole-2-carboxamido)pyridin-2-yl)-1H-1,2,3-triazol-5-yl)carbamate]	443 nM
C[C@@H](OC(=O)Nc1c(-c2ccc(NC(=O)c3cc(C#N)no3)cn2)nnn1C)c1cc(F)cnc1F [Compound 258, (R)-1-(2,5-difluoropyridin-3-yl)ethyl (4-(5-(3-cyanoisoxazole-5-carboxamido)pyridin-2-yl)-1-methyl-1H-1,2,3-triazol-5-yl)carbamate]	19.3 nM
C[C@@H](OC(=O)Nc1c(-c2ccc(NC(=O)c3cnnc(C(F)(F)F)c3)cn2)nnn1C)c1cc(F)cnc1F [Compound 259, (R)-1-(2,5-difluoropyridin-3-yl)ethyl (1-methyl-4-(5-(6-(trifluoromethyl)pyridazine-4-carboxamido)pyridin-2-yl)-1H-1,2,3-triazol-5-yl)carbamate]	101 nM
Cc1cc(C(=O)Nc2ccc(-c3nnn(C)c3NC(=O)O[C@H](C)c3cc(F)cnc3F)nc2)on1 [Compound 260, (R)-1-(2,5-difluoropyridin-3-yl)ethyl (1-methyl-4-(5-(3-methylisoxazole-5-carboxamido)pyridin-2-yl)-1H-1,2,3-triazol-5-yl)carbamate]	161 nM
C[C@@H](OC(=O)Nc1c(-c2ccc(NC(=O)c3ccnc(C(F)(F)F)c3F)cn2)nnn1C)c1cc(F)cnc1F [Compound 261, (R)-1-(2,5-difluoropyridin-3-yl)ethyl (4-(5-(3-fluoro-2-(trifluoromethyl)isonicotinamido)pyridin-2-yl)-1-methyl-1H-1,2,3-triazol-5-yl)carbamate]	11.9 nM
C[C@@H](OC(=O)Nc1c(-c2ccc(NC(=O)c3ccc(Cl)nc3F)cn2)nnn1C)c1cc(F)cnc1F [Compound 262, (R)-1-(2,5-difluoropyridin-3-yl)ethyl (4-(5-(6-chloro-2-fluoronicotinamido)pyridin-2-yl)-1-methyl-1H-1,2,3-triazol-5-yl)carbamate]	23.7 nM
C[C@@H](OC(=O)Nc1c(-c2ccc(NC(=O)c3cncc(F)c3Cl)cn2)nnn1C)c1cc(F)cnc1F [Compound 263, (R)-1-(2,5-difluoropyridin-3-yl)ethyl (4-(5-(4-chloro-5-fluoronicotinamido)pyridin-2-yl)-1-methyl-1H-1,2,3-triazol-5-yl)carbamate]	691 nM
C[C@@H](OC(=O)Nc1c(-c2ccc(NC(=O)c3cc(F)nc(F)c3F)cn2)nnn1C)c1cc(F)cnc1F [Compound 264, (R)-1-(2,5-difluoropyridin-3-yl)ethyl (1-methyl-4-(5-(2,3,6-trifluoroisonicotinamido)pyridin-2-yl)-1H-1,2,3-triazol-5-yl)carbamate]	203 nM
C[C@@H](OC(=O)Nc1c(-c2ccc(NC(=O)[C@@H]3C[C@H]3c3ccccn3)cn2)nnn1C)c1cc(F)cnc1F [Compound 265, (R)-1-(2,5-difluoropyridin-3-yl)ethyl (1-methyl-4-(5-((1R,2R)-2-(pyridin-2-yl)cyclopropane-1-carboxamido)pyridin-2-yl)-1H-1,2,3-triazol-5-yl)carbamate]	19.5 nM
C[C@@H](OC(=O)Nc1c(-c2ccc(NC(=O)[C@H]3C[C@@H]3c3ccccn3)cn2)nnn1C)c1cc(F)cnc1F [Compound 266, (R)-1-(2,5-difluoropyridin-3-yl)ethyl (1-methyl-4-(5-((1S,2S)-2-(pyridin-2-yl)cyclopropane-1-carboxamido)pyridin-2-yl)-1H-1,2,3-triazol-5-yl)carbamate]	749 nM
C[C@@H](OC(=O)Nc1c(-c2ccc(NC(=O)[C@@H]3C[C@H]3C3CC3)cn2)nnn1C)c1cc(F)cnc1F [Compound 267, (R)-1-(2,5-difluoropyridin-3-yl)ethyl (4-(5-((1S,2R)[1,1′-bi(cyclopropane)]-2-carboxamido)pyridin-2-yl)-1-methyl-1H-1,2,3-triazol-5-yl)carbamate]	588 nM
C[C@@H](OC(=O)Nc1c(-c2ccc(NC(=O)[C@H]3C[C@@H]3C3CC3)cn2)nnn1C)c1cc(F)cnc1F [Compound 268, (R)-1-(2,5-difluoropyridin-3-yl)ethyl (4-(5-((1R,2S)-[1,1′-bi(cyclopropane)]-2-carboxamido)pyridin-2-yl)-1-methyl-1H-1,2,3-triazol-5-yl)carbamate]	7.3 nM
C[C@@H](OC(=O)Nc1c(-c2ccc(NC(=O)[C@]3(C#N)C[C@H]3F)cn2)nnn1C)c1cc(F)cnc1F [Compound 269, (R)-1-(2,5-difluoropyridin-3-yl)ethyl (4-(5-((1R,2R)-1-cyano-2-fluorocyclopropane-1-carboxamido)pyridin-2-yl)-1-methyl-1H-1,2,3-triazol-5-yl)carbamate]	127 nM
C[C@@H](OC(=O)Nc1c(-c2ccc(NC(=O)[C@@]3(C#N)C[C@@H]3F)cn2)nnn1C)c1cc(F)cnc1F [Compound 270, (R)-1-(2,5-difluoropyridin-3-yl)ethyl (4-(5-((1S,2S)-1-cyano-2-fluorocyclopropane-1-carboxamido)pyridin-2-yl)-1-methyl-1H-1,2,3-triazol-5-yl)carbamate]	168 nM
C[C@@H](OC(=O)Nc1c(-c2ccc(NC(=O)c3ccc(C4(C#N)CC4)nc3)cn2)nnn1C)c1cc(F)cnc1F [Compound 271, (R)-1-(2,5-difluoropyridin-3-yl)ethyl (4-(5-(6-(1-cyanocyclopropyl)nicotinamido)pyridin-2-yl)-1-methyl-1H-1,2,3-triazol-5-yl)carbamate]	229 nM
C[C@@H](OC(=O)Nc1c(-c2ccc(NC(=O)c3ccc(C(C)(F)F)nc3)cn2)nnn1C)c1cc(F)cnc1F [Compound 272, (R)-1-(2,5-difluoropyridin-3-yl)ethyl (4-(5-(6-(1,1-difluoroethyl)nicotinamido)pyridin-2-yl)-1-methyl-1H-1,2,3-triazol-5-yl)carbamate]	162 nM
C[C@@H](OC(=O)Nc1c(-c2ccc(NC(=O)c3ccnc(S(C)(=O)=O)c3)cn2)nnn1C)c1cc(F)cnc1F [Compound 273, (R)-1-(2,5-difluoropyridin-3-yl)ethyl (1-methyl-4-(5-(2-(methylsulfonyl)isonicotinamido)pyridin-2-yl)-1H-1,2,3-triazol-5-yl)carbamate]	248 nM
C[C@@H](OC(=O)Nc1c(-c2ccc(NC(=O)c3ccc4ncn(C)c4c3)cn2)nnn1C)c1cc(F)cnc1F [Compound 274, (R)-1-(2,5-difluoropyridin-3-yl)ethyl (1-methyl-4-(5-(1-methyl-1H-benzo[d]imidazole-6-carboxamido)pyridin-2-yl)-1H-1,2,3-triazol-5-yl)carbamate]	403 nM
C[C@@H](OC(=O)Nc1c(-c2ccc(NC(=O)c3cc(C(F)(F)F)cnc3F)cn2)nnn1C)c1cc(F)cnc1F [Compound 275, (R)-1-(2,5-difluoropyridin-3-yl)ethyl (4-(5-(2-fluoro-5-(trifluoromethyl)nicotinamido)pyridin-2-yl)-1-methyl-1H-1,2,3-triazol-5-yl)carbamate]	241 nM
Cc1noc(C(=O)Nc2ccc(-c3nnn(C)c3NC(=O)O[C@H](C)c3cc(F)cnc3F)nc2)c1C [Compound 276, (R)-1-(2,5-difluoropyridin-3-yl)ethyl (4-(5-(3,4-dimethylisoxazole-5-carboxamido)pyridin-2-yl)-1-methyl-1H-1,2,3-triazol-5-yl)carbamate]	140 nM
Cc1nc2cc(C(=O)Nc3ccc(-c4nnn(C)c4NC(=O)O[C@H](C)c4cc(F)cnc4F)nc3)cnc2[nH]1 [Compound 277, (R)-1-(2,5-difluoropyridin-3-yl)ethyl (1-methyl-4-(5-(2-methyl-3H-imidazo[4,5-b]pyridine-6-carboxamido)pyridin-2-yl)-1H-1,2,3-triazol-5-yl)carbamate]	955 nM
C[C@@H](OC(=O)Nc1c(-c2ccc(NC(=O)c3cnc4cnn(C)c4c3)cn2)nnn1C)c1cc(F)cnc1F [Compound 278, (R)-1-(2,5-difluoropyridin-3-yl)ethyl (1-methyl-4-(5-(1-methyl-1H-pyrazolo[4,3-b]pyridine-6-carboxamido)pyridin-2-yl)-1H-1,2,3-triazol-5-yl)carbamate]	810 nM
Cc1noc2cc(C(=O)Nc3ccc(-c4nnn(C)c4NC(=O)O[C@H](C)c4cc(F)cnc4F)nc3)ccc12 [Compound 279, (R)-1-(2,5-difluoropyridin-3-yl)ethyl (1-methyl-4-(5-(3-methylbenzo[d]isoxazole-6-carboxamido)pyridin-2-yl)-1H-1,2,3-triazol-5-yl)carbamate]	97.4 nM
C[C@@H](OC(=O)Nc1c(-c2ccc(NC(=O)c3cnc(C4CC4)o3)cn2)nnn1C)c1cc(F)cnc1F [Compound 280, (R)-1-(2,5-difluoropyridin-3-yl)ethyl (4-(5-(2-cyclopropyloxazole-5-carboxamido)pyridin-2-yl)-1-methyl-1H-1,2,3-triazol-5-yl)carbamate]	98.7 nM
